Consider two molecules from patent publication US9029553B2, “2-anilino nicotinyl linked 2-amino benzothiazole conjugates and process for the preparation thereof” (Council of Scientific & Industrial Research, priority 2011, dated 2015).

Data set [1] concerns RPMI-8226. Briefly: NCI SRB GI50 screen. Format: cell-based. As to conditions: Homo sapiens, Leukemia, 48 hrs exposure, read-out: Growth Inhibition GI50 RPMI-8226. As for the experimental part:
2-Anilino nicotinyl linked 2-amino benzothiazole conjugates of formula 9-12 were tested against fifty nine human cancer cell lines derived from nine cancer types (leukemia, non-small cell lung cancer, colon cancer, CNS cancer, melanoma, ovarian cancer, renal cancer, prostate cancer and breast cancer) as per NCI protocol. For each compound, dose response curves for individual cell lines were measured at a minimum of five concentrations at 10 fold dilutions. A protocol of 48 hrs continuous drug exposure was used, and a sulforhodamine B (SRB) protein assay was used to estimate cell viability or growth.

For data set [2], the system named is Ehrlich Ascites Carcinoma (EAC). Briefly: In vivo anticancer activity, Ehrlich ascites carcinoma. Set-up: species or system Swiss mice. As to conditions: for No. of deaths / toxicity to animals: EAC mice. How it is done: Model: Ehrlich Ascites Carcinoma (EAC)
Ehrlich ascites carcinoma (EAC) cells were collected from the peritoneal cavity of the swiss mice harbouring 8-10 days old ascitic tumor. 1×10^7 EAC cells were injected intraperitoneally in Swiss mice selected for the experiment on day 0. The next day, animals were randomized and divided into different groups. The treatment groups contained 7 animals each and control group contained 10 animals. Treatment groups were treated with different doses of test substances intraperitoneally from day 1-9. One of the treatment group received 5-fluorouracil (20 mg/kg, i.p) and it served as positive control. The tumor bearing control group was similarly administered normal saline (0.2 ml, i.p.). On day 12, animals were sacrificed and ascitic fluid was collected from peritoneal cavity of each mouse for the evaluation of tumor growth. Percent tumor growth inhibition was calculated based on the total number of tumor cells present in the peritoneal cavity as on day 12 of the experiment using the following formula.

Data set [3] concerns HL-60 cells. Briefly: Cell cycle analysis (FACS) by flow cytometry. Type of data set: cell-based, human. As to conditions: 1 μM, up to 24 h. The source says: The damage was more apparent with compound 8 and 6 (90% and 60% DNA damaged, respectively).
In general terms: A flow cytometer gives signals particle by particle.

Data set [4] has as its system topoisomerase II. In words: DNA topoisomerase-II inhibition assay. Format: biochemical. As to conditions: 1 μM; etoposide 100 μM. An excerpt: DNA topoisomerases are nuclear enzymes capable of resolving the topology of DNA to allow its replication. So, proper relaxing is very important for successful replication cycle and thus for the cell survival. However, topoisomerases also serve as targets in the anticancer chemotherapy in which cell death serves an important purpose. Moreover, the topoisomerase targeting drugs can either be classified either topo posions, which act by stabilizing enzyme DNA cleavable complexes leading to DNA break or topo catalytic inhibitors, which act by stabilizing enzyme where both DNA strands remain intact and no DNA breaks occur. Importantly, all the topoisomerase inhibitors finally induce apoptosis. In the present study, all the five compounds 4-8 were first subjected to topoisomerase II inhibition assay.

The test system of data set [5] is HL-60. In words: MTT inhibition of cell proliferation. Format: cell-based. The following applies: Homo sapiens, 48 h. The source says: (§1) In order to determine the mode of action of cell death in cancer cells, first we explored the cytotoxic potential of different structural analogs of benzothiazoles on different human cancer cell lines. […] These compounds have limited or no cytotoxicity to cervical cancer SiHa, HeLa cells, breast cancer MCF-7 cells and colon cancer HCT-15 cells.

Data set [6] deals with MCF-7. Briefly: MTT inhibition of cell proliferation. Format: cell-based. The following applies: Homo sapiens, MCF7, 48 h.
Description: as §1

Data set [7] relates to HCT-15. Briefly: MTT inhibition of cell proliferation. Format: cell-based. As to conditions: Homo sapiens, 48 h.
Description: as §1

The test system of data set [8] is HL-60. Briefly: Fluorescent microscopic (DAPI) analysis of cell death. Format: cell-based, human. The following applies: HL-60, 1 μM, 24 h, data not shown. How it is done:
(§2) The mechanism of cell death was also studied in HL-60 and PC-3 cells by fluorescent microscopic studies. The PC-3 cells were treated with compd. 8 as in case of HL-60 cells. For fluorescent DAPI staining, air dried smears of cells on glass slides were fixed in absolute methanol at −20° C. for 20 min and stained with DAPI (Sigma) at 1 μg/ml at room temperature for 20 min in the dark and mounted with 90% glycerol in PBS and observed under fluorescent microscope (Olympus).
(§3) Morphological changes of HL-60 and PC-3 cells in response to this compound 8 were observed. The untreated cells were having large sized nuclei.

Data set [9] relates to PC-3 cells. The data set is described as above. Type of data set: cell-based, human. The following applies: PC-3, 1 μM, 24 h. As for the experimental part:
as §2, §3

Entries after “also recorded” stand apart in the source; their conditions may differ.

By GI50 is commonly meant the concentration at which growth is held to half of that of the control. By IC50 is commonly meant the midpoint of a concentration-inhibition curve. A high value points to a need for much substance.

For `COc1ccc2nc(NC(=O)c3cccnc3Nc3cc(OC)c(OC)c(OC)c3)sc2c1` [Compound 12, N-3-(6-methoxy-1,3-benzothiazol-2-yl)-2-(3,4,5-trimethoxyanilino) nicotinamide], the GI50 in data set [1] was determined as 9.94 µM.

As to `O=C(Nc1nc2ccc([N+](=O)[O-])cc2s1)c1cccnc1Nc1cc(F)c(F)c(F)c1` [Compound 8, N3-(6-nitro-1,3-benzothiazol-2-yl)-2-[(3,4,5-trifluorophenyl)amino]-3-pyridine carboxamide], the “Growth Inhibition (%)” value in [2] (0.1 mg/kg i.p. day 1-9, read day 12) is on record as 10.98%; in data set [2] (0.3 mg/kg i.p. day 1-9, read day 12), 53.15%; in data set [2] (0.4 mg/kg i.p. day 1-9, read day 12) it was “Intolerable”; in data set [2] (0.5 mg/kg i.p. day 1-9, read day 12), “Intolerable”; in [2] (2 mg/Kg i.p. day 1-9, read day 12), “Intolerable”; in data set [2] (5 mg/Kg i.p. day 1-9, read day 12), “Intolerable”. In addition, the “Growth Inhibition (%)” value in data set [2] (20 mg/Kg i.p. day 1-9, read day 12) is listed as “Intolerable”. Moreover, the “No. of deaths / toxicity to animals” value is 0/7 in data set [2] (0.1 mg/kg i.p.); 0/7 in data set [2] (0.3 mg/kg i.p.); “deaths of all the seven animals” in data set [2] (0.4 mg/kg i.p.); 7/7 in data set [2] (0.4 mg/kg i.p., listed as Comp 8); 7/7 in data set [2] (0.5 mg/kg i.p.); 7/7 in data set [2] (2 mg/Kg i.p.). Moreover, the “No. of deaths / toxicity to animals” value in data set [2] (5 mg/Kg i.p.) and in data set [2] (20 mg/Kg i.p.) was 7/7 in each case. The “DNA damaged (sub-G0 fraction)” value in data set [3] was 90%. For the same molecule, in data set [4], the “topoisomerase-II inhibition (DNA relaxation)” value is “more potent effect relative to etoposide; also recorded: maximum inhibition”. For the same molecule, the IC50 in [5] is 0.08 µM; in data set [6], more than 100 µM; in [7], more than 100 µM. Further, the “nuclear morphology (DAPI)” value in data set [8] is “fragmentatation of nuclei due to apoptosis”; in data set [9], “fragmentatation of nuclei due to apoptosis; also recorded: condensation and fragmentation of nuclei”.
